Assay [1] addresses Serine/threonine-protein kinase ATR (Homo sapiens, UniProt Q13535).
Assay [2] concerns the target T1, Cyclin-dependent kinase-like 5 (Homo sapiens, UniProt O76039).
T1 sequence (O76039 whole entry): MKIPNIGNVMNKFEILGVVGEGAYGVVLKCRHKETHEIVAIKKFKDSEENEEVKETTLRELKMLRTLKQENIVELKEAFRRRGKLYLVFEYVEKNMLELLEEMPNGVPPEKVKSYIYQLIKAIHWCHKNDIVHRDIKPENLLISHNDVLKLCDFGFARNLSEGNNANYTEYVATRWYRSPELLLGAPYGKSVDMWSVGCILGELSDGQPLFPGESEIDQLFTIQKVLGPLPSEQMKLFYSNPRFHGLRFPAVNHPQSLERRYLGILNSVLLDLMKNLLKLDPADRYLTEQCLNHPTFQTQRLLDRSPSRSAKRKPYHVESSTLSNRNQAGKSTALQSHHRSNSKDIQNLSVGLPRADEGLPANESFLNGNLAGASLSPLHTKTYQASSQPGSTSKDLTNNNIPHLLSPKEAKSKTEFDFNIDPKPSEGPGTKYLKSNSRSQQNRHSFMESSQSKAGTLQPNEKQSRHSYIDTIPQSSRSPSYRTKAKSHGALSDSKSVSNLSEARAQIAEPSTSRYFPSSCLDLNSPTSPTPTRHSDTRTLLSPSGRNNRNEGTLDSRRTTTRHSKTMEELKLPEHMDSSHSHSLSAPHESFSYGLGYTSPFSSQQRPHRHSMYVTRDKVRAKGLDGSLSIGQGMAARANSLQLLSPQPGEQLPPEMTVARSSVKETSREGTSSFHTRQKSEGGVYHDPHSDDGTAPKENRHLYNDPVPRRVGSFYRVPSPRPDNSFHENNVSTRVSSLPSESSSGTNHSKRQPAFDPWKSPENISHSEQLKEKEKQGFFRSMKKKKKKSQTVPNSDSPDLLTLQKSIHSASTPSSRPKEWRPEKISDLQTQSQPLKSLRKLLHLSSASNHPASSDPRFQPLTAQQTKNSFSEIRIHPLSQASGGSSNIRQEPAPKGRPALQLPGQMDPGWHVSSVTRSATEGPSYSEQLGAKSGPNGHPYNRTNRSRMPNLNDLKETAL

In assay [3] the target is Dual specificity protein kinase CLK2 (Homo sapiens, UniProt P49760).
Dual specificity protein kinase CLK2, sequence (P49760 whole entry): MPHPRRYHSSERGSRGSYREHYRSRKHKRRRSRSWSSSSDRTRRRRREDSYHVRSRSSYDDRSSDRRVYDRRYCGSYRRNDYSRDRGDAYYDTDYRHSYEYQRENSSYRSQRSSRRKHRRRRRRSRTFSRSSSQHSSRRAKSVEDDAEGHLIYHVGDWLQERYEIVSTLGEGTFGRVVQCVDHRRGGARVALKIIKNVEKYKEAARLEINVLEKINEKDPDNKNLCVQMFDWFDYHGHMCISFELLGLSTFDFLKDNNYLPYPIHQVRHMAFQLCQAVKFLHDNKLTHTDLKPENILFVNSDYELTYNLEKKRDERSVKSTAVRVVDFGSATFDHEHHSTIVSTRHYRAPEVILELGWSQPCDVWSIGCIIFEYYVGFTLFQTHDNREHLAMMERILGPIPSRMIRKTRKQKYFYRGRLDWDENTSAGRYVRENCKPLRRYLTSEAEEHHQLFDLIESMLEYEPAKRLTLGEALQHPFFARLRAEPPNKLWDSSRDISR
The target of assay [4] is Dual specificity protein kinase CLK4 (Homo sapiens, UniProt Q9HAZ1).
Assay [5] addresses Epidermal growth factor receptor (Homo sapiens, UniProt P00533).
Assay [6] deals with Glycogen synthase kinase-3 beta (Homo sapiens, UniProt P49841).
The target in assay [7] is T2, Isoleucine--tRNA ligase, mitochondrial (Homo sapiens, UniProt Q9NSE4).
T2 sequence (Q9NSE4 whole entry): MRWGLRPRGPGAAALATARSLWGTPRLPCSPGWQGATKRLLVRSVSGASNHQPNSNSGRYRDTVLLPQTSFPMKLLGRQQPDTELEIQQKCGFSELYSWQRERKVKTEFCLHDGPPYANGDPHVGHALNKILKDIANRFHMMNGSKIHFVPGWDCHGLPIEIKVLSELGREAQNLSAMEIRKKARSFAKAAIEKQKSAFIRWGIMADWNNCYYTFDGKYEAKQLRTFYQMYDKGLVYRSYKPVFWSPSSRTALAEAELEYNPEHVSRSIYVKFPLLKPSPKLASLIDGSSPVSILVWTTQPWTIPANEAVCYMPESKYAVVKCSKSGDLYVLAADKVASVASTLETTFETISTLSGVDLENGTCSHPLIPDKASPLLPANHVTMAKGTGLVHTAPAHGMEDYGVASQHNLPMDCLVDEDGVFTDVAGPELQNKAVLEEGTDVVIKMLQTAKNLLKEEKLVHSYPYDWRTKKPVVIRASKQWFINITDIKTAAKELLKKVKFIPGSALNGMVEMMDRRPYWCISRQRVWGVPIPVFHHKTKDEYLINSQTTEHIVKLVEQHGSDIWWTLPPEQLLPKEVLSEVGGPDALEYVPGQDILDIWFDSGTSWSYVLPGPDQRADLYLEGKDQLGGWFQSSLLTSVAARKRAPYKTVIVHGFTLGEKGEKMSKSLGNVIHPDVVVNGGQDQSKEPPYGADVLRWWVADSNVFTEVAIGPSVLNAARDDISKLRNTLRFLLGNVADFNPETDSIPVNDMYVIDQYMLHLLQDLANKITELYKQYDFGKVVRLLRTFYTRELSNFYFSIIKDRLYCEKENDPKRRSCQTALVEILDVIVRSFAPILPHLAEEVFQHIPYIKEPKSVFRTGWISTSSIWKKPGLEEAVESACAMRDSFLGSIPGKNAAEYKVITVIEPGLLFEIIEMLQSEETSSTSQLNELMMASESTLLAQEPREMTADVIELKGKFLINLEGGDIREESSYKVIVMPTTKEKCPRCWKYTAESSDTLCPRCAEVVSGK

The target of assay [8] is Mitogen-activated protein kinase 14 (Homo sapiens, UniProt Q16539).
Mitogen-activated protein kinase 14, sequence (Q16539 whole entry): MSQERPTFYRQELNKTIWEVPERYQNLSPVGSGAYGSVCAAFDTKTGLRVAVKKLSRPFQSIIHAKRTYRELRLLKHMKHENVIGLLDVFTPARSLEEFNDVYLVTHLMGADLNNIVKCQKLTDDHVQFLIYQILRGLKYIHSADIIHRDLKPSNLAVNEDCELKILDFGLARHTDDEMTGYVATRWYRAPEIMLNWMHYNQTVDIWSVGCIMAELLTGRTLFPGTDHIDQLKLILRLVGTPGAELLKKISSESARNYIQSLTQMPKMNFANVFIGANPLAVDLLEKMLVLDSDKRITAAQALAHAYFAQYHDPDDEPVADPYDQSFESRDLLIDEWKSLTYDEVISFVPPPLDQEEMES
Assay [9] addresses Serine/threonine-protein kinase Nek7 (Homo sapiens, UniProt Q8TDX7).
Assay [10] concerns the target Phosphatidylethanolamine-binding protein 1 (Homo sapiens, UniProt P30086).
For assay [11], the target named is Proto-oncogene tyrosine-protein kinase receptor Ret (Homo sapiens, UniProt P07949).
Assay [12] addresses Dual specificity testis-specific protein kinase 1 (Homo sapiens, UniProt Q15569).
The target in assay [13] is Cell division cycle 7-related protein kinase (Homo sapiens, UniProt O00311).
Cell division cycle 7-related protein kinase, sequence (O00311 whole entry): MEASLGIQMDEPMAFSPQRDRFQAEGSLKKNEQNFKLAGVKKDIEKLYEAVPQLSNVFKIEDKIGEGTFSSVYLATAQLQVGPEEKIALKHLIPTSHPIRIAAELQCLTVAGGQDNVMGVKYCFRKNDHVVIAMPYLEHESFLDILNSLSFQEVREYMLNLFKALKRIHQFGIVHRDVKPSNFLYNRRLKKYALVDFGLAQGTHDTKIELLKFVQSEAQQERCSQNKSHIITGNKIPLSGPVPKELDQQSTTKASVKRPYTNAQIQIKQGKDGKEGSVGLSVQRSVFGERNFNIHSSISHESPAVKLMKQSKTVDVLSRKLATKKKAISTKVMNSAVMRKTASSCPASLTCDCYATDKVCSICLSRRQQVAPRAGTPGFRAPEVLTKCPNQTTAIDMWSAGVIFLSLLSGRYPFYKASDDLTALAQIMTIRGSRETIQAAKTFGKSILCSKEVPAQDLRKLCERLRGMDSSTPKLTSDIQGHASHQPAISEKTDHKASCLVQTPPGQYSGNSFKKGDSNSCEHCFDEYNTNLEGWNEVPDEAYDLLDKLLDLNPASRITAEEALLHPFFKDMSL
The target of another assay is T3, UMP-CMP kinase (Homo sapiens, UniProt P30085).
T3 sequence (P30085 whole entry): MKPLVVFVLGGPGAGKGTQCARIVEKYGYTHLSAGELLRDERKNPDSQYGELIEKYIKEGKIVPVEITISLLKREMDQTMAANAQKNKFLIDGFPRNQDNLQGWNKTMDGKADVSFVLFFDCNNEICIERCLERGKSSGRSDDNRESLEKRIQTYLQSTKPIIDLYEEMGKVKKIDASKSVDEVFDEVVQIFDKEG

The target in assay [14] is DNA topoisomerase 2-alpha (Homo sapiens, UniProt P11388).
DNA topoisomerase 2-alpha, sequence (P11388 whole entry): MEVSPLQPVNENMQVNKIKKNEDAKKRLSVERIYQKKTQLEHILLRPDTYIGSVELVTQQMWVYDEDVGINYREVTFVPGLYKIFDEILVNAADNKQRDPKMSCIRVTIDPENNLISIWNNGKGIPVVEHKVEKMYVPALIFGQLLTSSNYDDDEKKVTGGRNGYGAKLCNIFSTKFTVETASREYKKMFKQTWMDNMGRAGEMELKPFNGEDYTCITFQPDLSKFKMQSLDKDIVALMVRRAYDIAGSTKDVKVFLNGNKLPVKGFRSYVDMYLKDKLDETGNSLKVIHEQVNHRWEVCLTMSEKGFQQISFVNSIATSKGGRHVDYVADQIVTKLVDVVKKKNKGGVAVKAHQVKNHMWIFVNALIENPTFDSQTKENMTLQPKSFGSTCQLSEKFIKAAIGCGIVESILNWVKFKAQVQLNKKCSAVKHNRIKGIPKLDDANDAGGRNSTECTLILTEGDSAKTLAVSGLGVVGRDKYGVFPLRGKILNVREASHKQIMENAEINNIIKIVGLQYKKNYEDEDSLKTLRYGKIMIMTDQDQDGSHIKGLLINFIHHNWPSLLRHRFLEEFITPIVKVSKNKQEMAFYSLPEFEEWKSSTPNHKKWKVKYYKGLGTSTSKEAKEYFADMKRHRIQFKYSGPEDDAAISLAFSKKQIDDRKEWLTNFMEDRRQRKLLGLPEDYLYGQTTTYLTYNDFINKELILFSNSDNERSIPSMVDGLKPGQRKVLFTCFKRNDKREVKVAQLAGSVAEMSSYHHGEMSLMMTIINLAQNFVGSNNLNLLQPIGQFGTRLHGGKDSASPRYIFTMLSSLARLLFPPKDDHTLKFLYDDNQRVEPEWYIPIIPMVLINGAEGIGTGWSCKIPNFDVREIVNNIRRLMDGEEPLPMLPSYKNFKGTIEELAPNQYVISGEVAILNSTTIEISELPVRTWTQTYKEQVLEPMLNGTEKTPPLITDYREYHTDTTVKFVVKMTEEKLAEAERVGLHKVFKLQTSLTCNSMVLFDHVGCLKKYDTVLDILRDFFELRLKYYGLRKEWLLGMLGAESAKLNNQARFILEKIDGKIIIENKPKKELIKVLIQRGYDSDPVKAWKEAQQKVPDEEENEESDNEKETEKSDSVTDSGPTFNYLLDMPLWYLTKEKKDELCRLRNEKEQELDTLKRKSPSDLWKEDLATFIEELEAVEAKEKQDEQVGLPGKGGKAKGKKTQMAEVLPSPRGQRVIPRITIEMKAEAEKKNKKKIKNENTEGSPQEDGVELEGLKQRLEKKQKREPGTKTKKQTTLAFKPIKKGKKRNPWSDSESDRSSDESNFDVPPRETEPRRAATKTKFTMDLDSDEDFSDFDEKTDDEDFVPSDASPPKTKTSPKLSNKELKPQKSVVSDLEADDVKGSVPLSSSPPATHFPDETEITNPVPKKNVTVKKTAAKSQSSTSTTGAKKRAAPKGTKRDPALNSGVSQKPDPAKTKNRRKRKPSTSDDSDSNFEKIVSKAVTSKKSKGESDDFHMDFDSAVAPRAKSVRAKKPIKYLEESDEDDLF
Assay [15] has as its target Membrane-associated progesterone receptor component 1 (Homo sapiens, UniProt O00264).

SMILES strings stand for the structures. The source made the active and inactive calls.
Also: in the data inactive means no Kd found up to 30 µM.

Membrane-associated progesterone receptor component 1, sequence (O00264 whole entry): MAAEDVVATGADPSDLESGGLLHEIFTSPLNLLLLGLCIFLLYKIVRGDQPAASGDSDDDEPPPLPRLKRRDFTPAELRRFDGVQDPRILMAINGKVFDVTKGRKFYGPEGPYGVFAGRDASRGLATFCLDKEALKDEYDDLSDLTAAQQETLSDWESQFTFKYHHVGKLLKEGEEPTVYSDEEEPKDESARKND
Epidermal growth factor receptor, sequence (P00533 whole entry): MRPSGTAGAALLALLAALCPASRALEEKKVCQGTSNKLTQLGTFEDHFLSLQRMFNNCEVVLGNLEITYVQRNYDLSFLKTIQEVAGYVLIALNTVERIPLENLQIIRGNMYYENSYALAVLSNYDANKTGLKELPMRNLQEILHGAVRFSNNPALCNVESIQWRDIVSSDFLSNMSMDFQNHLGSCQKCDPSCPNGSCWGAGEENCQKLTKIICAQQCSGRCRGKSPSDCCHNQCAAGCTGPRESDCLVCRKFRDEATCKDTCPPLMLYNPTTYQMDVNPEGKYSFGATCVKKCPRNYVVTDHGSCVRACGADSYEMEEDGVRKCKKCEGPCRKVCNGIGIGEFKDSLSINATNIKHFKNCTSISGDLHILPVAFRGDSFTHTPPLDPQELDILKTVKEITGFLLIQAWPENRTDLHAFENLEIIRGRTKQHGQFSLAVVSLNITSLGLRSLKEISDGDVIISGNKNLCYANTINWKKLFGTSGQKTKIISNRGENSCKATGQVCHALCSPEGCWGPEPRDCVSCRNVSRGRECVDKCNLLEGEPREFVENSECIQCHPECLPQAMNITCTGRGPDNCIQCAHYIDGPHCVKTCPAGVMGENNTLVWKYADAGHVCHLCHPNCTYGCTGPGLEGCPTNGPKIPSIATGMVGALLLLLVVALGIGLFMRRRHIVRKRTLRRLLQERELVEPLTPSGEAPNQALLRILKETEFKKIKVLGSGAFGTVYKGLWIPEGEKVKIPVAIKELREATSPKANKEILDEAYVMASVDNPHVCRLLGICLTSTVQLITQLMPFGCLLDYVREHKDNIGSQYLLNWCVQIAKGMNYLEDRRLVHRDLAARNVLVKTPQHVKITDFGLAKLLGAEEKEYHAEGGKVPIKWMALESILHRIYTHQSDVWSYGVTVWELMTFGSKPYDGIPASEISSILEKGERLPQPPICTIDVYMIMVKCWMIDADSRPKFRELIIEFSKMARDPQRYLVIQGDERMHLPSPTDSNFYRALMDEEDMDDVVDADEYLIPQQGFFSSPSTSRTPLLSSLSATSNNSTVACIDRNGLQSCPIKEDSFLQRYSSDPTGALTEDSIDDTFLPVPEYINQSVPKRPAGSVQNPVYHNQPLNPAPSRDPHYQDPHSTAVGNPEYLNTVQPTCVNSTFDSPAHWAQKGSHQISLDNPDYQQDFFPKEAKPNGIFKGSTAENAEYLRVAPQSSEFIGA
Phosphatidylethanolamine-binding protein 1, sequence (P30086 whole entry): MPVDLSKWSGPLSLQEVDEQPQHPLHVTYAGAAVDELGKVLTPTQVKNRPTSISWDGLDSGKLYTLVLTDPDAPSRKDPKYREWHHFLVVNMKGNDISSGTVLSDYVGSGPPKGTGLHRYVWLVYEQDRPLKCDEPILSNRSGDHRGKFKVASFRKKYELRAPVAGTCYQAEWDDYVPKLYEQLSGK
Serine/threonine-protein kinase Nek7, sequence (Q8TDX7 whole entry): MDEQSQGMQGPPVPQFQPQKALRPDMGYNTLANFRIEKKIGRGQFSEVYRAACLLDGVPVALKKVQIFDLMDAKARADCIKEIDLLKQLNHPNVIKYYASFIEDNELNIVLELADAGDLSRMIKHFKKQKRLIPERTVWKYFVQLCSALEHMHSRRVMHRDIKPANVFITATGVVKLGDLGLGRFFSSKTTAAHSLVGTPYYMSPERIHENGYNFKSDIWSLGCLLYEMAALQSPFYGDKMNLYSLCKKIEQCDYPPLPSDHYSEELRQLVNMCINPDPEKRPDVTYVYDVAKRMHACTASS

On to `COc1cc(F)c(F)c(Nc2ccc(I)cc2F)c1NS(=O)(=O)C1(C[C@H](O)CO)CC1` [REFAMETINIB], for which the Kd in assay [1], in assay [2], in [3], in assay [4], in [5] and in assay [6] was > 30 µM (inactive) each time. Also, the Kd in assay [7], in [8], in assay [9], in assay [10], in [11] and in assay [12] was > 30 µM (inactive) throughout.
As to `CCOc1ccn(-c2ccc(F)cc2)c(=O)c1C(=O)Nc1ccc(Oc2ccnc(N)c2Cl)c(F)c1` [BMS-777607], the Kd in assay [1], in [13], in assay [2], in assay [7], in [8] and in assay [9] was > 30 µM (inactive) in each case. Further, in assay [10], the Kd is > 30 µM (inactive).
Consider `CC1(COc2ccc3c(c2)ncn3-c2ccc3cccc(N4CCC(N)CC4)c3n2)COC1` [CRENOLANIB], for which the Kd was > 30 µM (inactive) in assay [13]; > 30 µM (inactive) in assay [2]; 0.003 µM (active) at UMP-CMP kinase; > 30 µM (inactive) in [5]; > 30 µM (inactive) in [6]; > 30 µM (inactive) in assay [7]. Also, the Kd in assay [8] is > 30 µM (inactive); in assay [9], > 30 µM (inactive); in assay [10] it was > 30 µM (inactive); in assay [11], 0.81 µM (active); in assay [12], > 30 µM (inactive); in assay [14], > 30 µM (inactive).
Regarding `O=S(=O)(c1cccc2cnccc12)N1CCCNCC1` [FASUDIL], the Kd (in [13]; at UMP-CMP kinase; in assay [9]; in [10]; in [12]; in assay [14]) was > 30 µM (inactive) in each case.
With `COc1ccc(-c2ccc3ncc4c(c3c2)n(-c2ccc(N3CCNCC3)c(C(F)(F)F)c2)c(=O)n4C)cn1` [BGT-226 FREE BASE], the Kd (in assay [13]; in assay [3]; on UMP-CMP kinase; in assay [5]; in [6]; in assay [7]) was > 30 µM (inactive) in each case. Also, the Kd in assay [8], in assay [9], in [10], in [15], in [11] and in [12] was > 30 µM (inactive) in each case. Also, the Kd in assay [14] was > 30 µM (inactive).
With `N#CCNC(=O)c1ccc(-c2ccnc(Nc3ccc(N4CCOCC4)cc3)n2)cc1` [MOMELOTINIB], the Kd (in assay [2]; in [3]; at UMP-CMP kinase; in assay [7]; in assay [8]; in [9]) was > 30 µM (inactive) throughout. Moreover, the Kd in [10], in assay [15] and in assay [14] was > 30 µM (inactive) throughout.
For `CC(C)(O)CC(=O)NCCn1ccc2ncnc(Nc3ccc(Oc4cccc(C(F)(F)F)c4)c(Cl)c3)c21` [TAK-285], the Kd in assay [13], in [2], in [6], in assay [8], in [9] and in [10] was > 30 µM (inactive) throughout. Moreover, the Kd in [15], in assay [11] and in assay [12] was > 30 µM (inactive) each time.
Turning to `COc1cc(Nc2ncc(F)c(Nc3ccc4c(n3)N(COP(=O)(O)O)C(=O)C(C)(C)O4)n2)cc(OC)c1OC` [FOSTAMATINIB], the Kd (in assay [1]; in [13]; in assay [2]; at UMP-CMP kinase; in assay [5]; in [6]) was > 30 µM (inactive) throughout. Besides, the Kd was > 30 µM (inactive) in assay [7]; > 30 µM (inactive) in [8]; > 30 µM (inactive) in assay [9]; > 30 µM (inactive) in [10]; > 30 µM (inactive) in assay [15]; 1.15 µM (active) in [11]. In addition, the Kd in [12] was > 30 µM (inactive).
For `CC(C)CC(=O)Nc1[nH]nc2c1CN(C(=O)C1CCN(C)CC1)C2(C)C` [PHA-793887], the Kd in assay [13] was > 30 µM (inactive); in assay [3], 0.007 µM; at UMP-CMP kinase it was > 30 µM (inactive); in assay [6], 0.012 µM (active); in assay [7], > 30 µM (inactive); in assay [8] it was > 30 µM (inactive). For the same molecule, the Kd in assay [9], in assay [10], in [15] and in assay [14] was > 30 µM (inactive) throughout.
As to `COc1cc2nccc(Oc3ccc(NC(=O)C4(C(=O)Nc5ccc(F)cc5)CC4)cc3)c2cc1OC` [CABOZANTINIB], the Kd (in [13]; in assay [3]; in assay [4]; on UMP-CMP kinase; in assay [6]; in assay [7]) was > 30 µM (inactive) in each case. Further, the Kd in assay [8], in [9], in assay [10] and in [15] was > 30 µM (inactive) each time.

A word on the Kd: it is the constant that tells how readily two partners part at equilibrium.

The values above are taken from ChEMBL document CHEMBL3991601, “The target landscape of clinical kinase drugs” (Science, 2017).
